How the values were obtained:
[1] = tested on: Sir2 or SIRT1; conditions: cited from earlier work
[2] = tested on: Drosophila melanogaster (Vestigal type); test: D. melanogaster lifespan with oxaloacetate in fly food; type: in vivo; conditions: Example 4, 16 mM in water wetting the fly food, vs control
Text: The fruit fly Drosophila melanogaster (Vestigal type, from Carolina Biological Supply) was used as a test organism to assess the addition of oxaloacetate therapy (from Sigma Aldrich Company) applied to the cells to extend lifespan and to act as a caloric restriction “mimic”. The fruit fly is more complex than C. elegans, but the metabolic pathways that involve calorie restriction are a basic building block of life, and are conserved throughout the animal kingdom. […] A small amount of yeast was added on top of the fly food. […] The flies were kept in a room receiving reflected natural sunlight at a temperature of 21° C. Each of the flies used emerged from the pupae state within 8 hours of each other. The day the flies were moved to the test vials was designated “day 0”, reflecting the emergence of the fly into adulthood. The flies were kept out of direct sunlight and were raised at a temperature of 21° C. The food vials were prepared every 3 to 4 days and the flies transferred to prevent infestation of mites and other pathogenic microbial organisms. The vials with the flies were counted every day to determine the number of dead vs. living. Flies were scored as dead when they no longer respond to a gentle prodding with a probe. Lifespan is defined as the time elapsed from when the flies enter into adulthood (lifespan=0) to when they are scored as dead. […]

[3] = tested on: C. elegans (N2 wild type); test: C. elegans lifespan on oxaloacetate-containing nematode growth agar; type: in vivo, Caenorhabditis elegans
Protocol: A similar set of eight control plates with the same nematode growth agar was also prepared. […] In addition, five “starter plates” were made using nematode growth agar and no 5′flurodeoxyuridine. All plates were streaked with 0.5 ml bacteria Luria broth containing E. coli as a food source for the nematodes. The bacteria were allowed to grow on the plates for several days at 37° C. prior to adding C. elegans. Ten C. elegans nematodes were transferred to each of five “starter plates” and were left on the plates for 12 hours to lay eggs. The C. elegans were then removed and the eggs were allowed to grow into young adults for two days. Ten nematodes were then transferred to each control plate and oxaloacetate plate by “picking” worms with a microprobe from the starter plate and moving it onto the target test plates. The day after the starter plates have been started with the 10 C. elegans was designated “day 0”, and was the estimated time of birth. The C. elegans were kept out of direct sunlight and were raised at a temperature of 21° C. The plates with the C. elegans were counted every day to determine the number of dead nematodes. Nematodes were scored as dead when they no longer respond to a gentle prodding with a probe. Lifespan is defined as the time elapsed from when the nematodes are hatched (lifespan=0) to when they are scored as dead. Nematodes that crawl off the plates or are otherwise lost during the assay have been excluded from calculations. The dead nematodes were removed from the plates each day with microprobe. The total population is the sum of all found dead worms. The counting of the nematodes was continued until all nematodes were dead. The data was then charted and is represented in FIG. 2. […] The highest increase in lifespan was at 16 mM (approximate 25%) for the concentrations tested, and the lowest increase was a 2 mM (approximately 10%). […] Splitomycin is a selective inhibitor for the Sir2 gene (Sir2a in yeast, Sirt1 in humnans).

[4] = tested on: Drosophila melanogaster; test: D. melanogaster lifespan under stress (food vials not changed, microbial pathogens); type: in vivo; conditions: Example 5, flies under stress
Text: It is well known in the literature that calorie restricted animals survive stress better than the control animals fed an ad libitum diet. The data from the experiment were charted and are represented in FIG. 5.

[5] = in vivo; cited from earlier work
[6] = mouse, in vivo
[7] = tested on: C57Bl/6 mice; test: Lifespan and health of C57Bl/6 mice fed oxaloacetate; type: in vivo; conditions: 0.4% in food by weight, at the 21st month of life, still continuing
[8] = 21 diabetic patients, 100 mg to 1,000 mg (2-10 mg/kg); cited from earlier work
[9] = tested on: liver tissue gene expression; test: Liver gene expression, Affymatrix Mouse Genome 430 2.0 Array, oxaloacetate and CR mice versus control mice; type: in vivo, C57Bl/6 mice; conditions: for common genes changed in same direction as calorie restriction: of the 363 common genes
Text: Three mice of each of the three groups of the C57Bl/6 mice of Example 6 were sacrificed after 21 weeks. […] Because each group was a pooling of three mice, there are a variety of individual responses. Changes in the physical results of the group (such as weight loss, increase in health span, and increase in life span) are due to genes expressed in common by the group, not in individual variation. Thus it is important to look at the genes that changed in expression from the control group, but are commonly expressed between the calorie restricted group and the oxaloacetate supplemented group.

[10] = Weight gain of older (9 month) C57Bl/6 mice fed oxaloacetate; type: in vivo, C57Bl/6 type male mice; conditions: 0.4% oxaloacetate in the food, eating freely, 9 month old mice
Text: C57Bl/6 type male mice approximately 9 months of age were obtained from Harlan, San Diego, Calif. as retired breeders. These mice were all born on the same day. The C57Bl/6 type mouse is inbred to reduce the genetic variation between individuals. The mice were housed in individual cages and were provided with ad libitum amounts of fortified food pellets (Kadee). The amount of food consumed was weighed daily, while the mice were weighed weekly. After two weeks, a baseline of the average food consumed by the mice was established at 7.1 grams per mouse per day. In addition, after an overnight fast, blood glucose readings for each mouse were recorded for each mouse. […] Male C57Bl/6 type mice, when allowed to eat freely, gain weight with age in a linear fashion. The mice were weighed weekly for 21 weeks, and the individual weights were recorded and averaged to form a “group average” for each of the three groups.

[11] = count of genes among those shown to change commonly

CC=O [acetaldehyde]
activity of beneficial genes [1]: did not see any increase in the activity of beneficial genes

O=C(O)CC(=O)C(=O)O [oxaloacetate]
increase in average lifespan [2]: 20% | increase in maximal life span ([3]; Example 1, 16 mM in nematode growth agar, vs control plates): 40% | increase in average lifespan ([3]; Example 1, 16 mM in nematode growth agar, vs control plates, 21° C.): 23.6% | increase in lifespan ([3]; Example 2, 2 mM in agar (lowest increase)): approximately 10% | increase in lifespan ([3]; Example 2, 16 mM in agar (highest increase)): ~25% | maximal increase in lifespan [4]: 30% | LD50 [5]: above 5 g/kg of body weight | toxicity [6]: negative toxicity | increase in lifespan over control group [7]: ≥ 10% | side effects [8]: no negative side effects | percentage of common changed genes moving in same direction as calorie restriction ([9]; 363 common genes, liver, Table 1): 98% | Gene Movement in Same Direction?, Cyp2b9 ([9]; Affymatrix No. 3985, OX versus CR, both to control): YES | Gene Movement in Same Direction?, similar to cytochrome P450 2B4-rat (LOC232993) ([9]; Affymatrix No. 17655, OX versus CR, both to control): YES | Percentage of Genes Moving in Same Direction as Calorie Restricted Mice ([9]; Table 2, 1.7 fold cut off): 100.0% | Mice Fed Oxaloacetate with Genes Moving in Opposite Direction as Calorie Restricted Mice [9, 11]: 7 | Mice Fed Oxaloacetate with Genes Moving in Same Direction as Calorie Restricted Mice [9, 11]: 356 | Percentage of Mice Fed Oxaloacetate with Genes Moving in Same Direction as Calorie Restricted Mice ([9]; genes shown to change commonly): 98.1% | common genes changed in same direction as calorie restriction ([9]; liver): 357 genes | common genes changed in same direction as calorie restriction ([9]; liver, listed as Oxaloacetate): 356 genes | genes with measurable change in expression versus control ([9]; pooled liver of three mice, 21 weeks): 765 genes | genes changed in common with calorie restricted mice versus control ([9]; pooled liver, 21 weeks): 363 genes | less weight gained than control group [10]: 20%

O=C1CCc2c(ccc3ccccc23)O1 [splitomycin, reference compound]
lifespan compared with control group ([3]; Example 3, FIG. 3, inhibited Sir2 function, no oxaloacetate): lived for shorter periods than the control group
